Like-named read-outs stand apart in the source and are kept apart here.
Key:
[1] = 25 mg/ml oxybutynin reservoir, 20 μm polybutadiene film, cited from earlier work
[2] = clinical; conditions: human, in vivo, topical or ocular; for concentration at 24 h: after 24 hours; for concentration at 12 h: after 12 hours
Experimental: (§1) Addition time was approximately 45 minutes.
No in-line adhesive was present. […] There was a 3M acrylate in-line adhesive present.
The in vivo plasma levels of oxybutynin were measured for two body sites. A 10 cm^2 device was worn on the penis for 101/2 hours and two 10 cm^2 devices were worn on the inner thigh for 24 hours. A control sample was drawn before applying the systems.
The other subject achieved a plasma level of 0.7 ng/mL after 12 hours, and the plasma level was 0.8 ng/mL after 24 hours.

[3] = assay type: in vivo, human
Experimental: as §1

[4] = clinical; assay type: in vivo, human; conditions: system worn for 24 hours
Experimental: Therapeutic blood levels from about 0.5 ng/ml to about 3.0 ng/ml can be obtained from administration rates in the range of 0.08 mg/hr to 0.5 mg/hr. […] Therapeutic blood levels can be achieved within approximately 1-5 hours, and peak blood concentrations are achieved at about 3 hours when the system is worn for 24 hours. […] The system application is easily adapted for shorter or longer duration treatments, but generally 24 hours is the nominal duration for treatment.

[5] = plasma oxybutynin concentration, two 10 cm^2 systems on inner thigh
[6] = plasma oxybutynin level, additional subject (the other), two 10 cm^2 systems on inner thigh

Q: With `CCN(CC)CC#CCOC(=O)C(O)(c1ccccc1)C1CCCCC1` (stereo not shown) [oxybutynin, 4-diethylamino-2-butynylphenylcyclohexylglycolate] as the molecule, how does the “in vitro release rate” value ([1]; 49 cm^2 area) read?
A: ~10 μg/cm^2 /hr

Q: What about the “in vitro release over 24 hours” value ([1]; over 24 hours through a 49 cm^2 area) of the same molecule?
A: approximately 12 mg

Q: What about the concentration at 9 h ([2]; plasma oxybutynin concentration, additional subject (one), two 10 cm^2 systems on inner thigh, after 9 hours) of the same molecule?
A: 2 ng/mL

Q: And the concentration at 24 h ([2]; plasma oxybutynin concentration, additional subject (one), two 10 cm^2 systems on inner thigh)?
A: 1.7 ng/mL

Q: What about the concentration at 12 h [2, 5] of the same molecule?
A: 0.9 ng/mL

Q: What about the concentration at 24 h [2, 5] of the same molecule?
A: 1.1 ng/mL

Q: And the concentration at 4 h ([2]; plasma oxybutynin level, 10 cm^2 device on the penis, within 4 hours)?
A: 2 ng/mL

Q: What about the concentration at 12 h [2, 6] of the same molecule?
A: 0.7 ng/mL

Q: And the concentration at 24 h [2, 6]?
A: 0.8 ng/mL

Q: And the “Measured Drug Loss” value ([3]; subject 1, inner thigh)?
A: 5.8 mg/20 cm^2 /day

Q: And the “Measured Drug Loss” value ([3]; subject 2, inner thigh)?
A: 8.6 mg/20 cm^2 /day

Q: What about the “Measured Drug Loss” value ([3]; subject 3, chest) of the same molecule?
A: 6.7 mg/20 cm^2 /day

Q: And the “Measured Drug Loss” value ([3]; subject 4, abdomen)?
A: 7.2 mg/20 cm^2 /day

Q: And the “Measured Drug Loss” value ([3]; subject 5, penis)?
A: 19.2 mg/20 cm^2 /day

Q: What about the Tmax ([4]; human, in vivo, topical or ocular, read-out: time of peak blood concentrations) of the same molecule?
A: ~3 h

Q: What about the “time to achieve therapeutic blood levels” value [4] of the same molecule?
A: 1 to 5 h

— patent publication US5411740A (ALZA Corporation, priority 1994, dated 1995)
